Experimental data published in patent US10131652B2, “Pyrimidinyloxy benzene derivatives as herbicides” (E. I. DU PONT DE NEMOURS AND COMPANY, priority 2014, dated 2018).

Key:
Format in all cases: in vivo
[1] = tested on: Italian ryegrass (Lolium multiflorum); experiment: Test B pre-/postemergence plant response
Summary of the method: (§1)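 Visual injury scores on a 0–100 scale (100 = complete control) relative to untreated plants, taken about 10 days post-treatment in greenhouse. Treatments were a directed preemergence soil spray and a postemergence spray at one- to two-leaf stage, using surfactant-containing solvent formulation.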

kochia (Kochia scoparia) = experiment: Test B pre-/postemergence plant response
Summary of the method: as §1

[2] = tested on: ragweed (common ragweed, Ambrosia elatior); experiment: Test B pre-/postemergence plant response
Summary of the method: as §1

[3] = tested on: Italian ryegrass (Lolium multiflorum); experiment: Test D pre-/postemergence plant response; settings: Postemergence; for Plant response rating, Ryegrass, Italian: scale 0 to 100, 0 no effect, 100 complete control
Summary of the method: (§2)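 Ratings were visual, 0 = no effect to 100 = complete control, taken against untreated controls after 13 to 15 days in a greenhouse. Chemicals, formulated in non-phytotoxic surfactant-containing solvent, went onto soil (loam/sand) at planting for preemergence, or onto 1- to 4-leaf plants (2–18 cm) for postemergence.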

[4] = tested on: barnyardgrass (Echinochloa crus-galli); experiment: Test D pre-/postemergence plant response; settings: Postemergence; for Barnyardgrass plant response rating: scale 0 to 100 (0 no effect, 100 complete control); for Plant response rating, Barnyardgrass: scale 0 to 100, 0 no effect, 100 complete control
Summary of the method: as §2

[5] = tested on: blackgrass (Alopecurus myosuroides); experiment: Test D pre-/postemergence plant response; settings: Postemergence; for Blackgrass plant response rating: scale 0 to 100 (0 no effect, 100 complete control); for Plant response rating, Blackgrass: scale 0 to 100, 0 no effect, 100 complete control
Summary of the method: as §2

corn (Zea mays) = experiment: Test D pre-/postemergence plant response; settings: Postemergence; for Corn plant response rating: scale 0 to 100 (0 no effect, 100 complete control); for Plant response rating, Corn: scale 0 to 100, 0 no effect, 100 complete control
Summary of the method: as §2

[6] = tested on: galium (catchweed bedstraw, Galium aparine); experiment: Test D pre-/postemergence plant response; settings: Postemergence; for Plant response rating, Galium: scale 0 to 100, 0 no effect, 100 complete control
Summary of the method: as §2

[7] = tested on: giant foxtail (Setaria faberii); experiment: Test D pre-/postemergence plant response; settings: Postemergence; for Foxtail, Giant plant response rating: scale 0 to 100 (0 no effect, 100 complete control); for Plant response rating, Foxtail, Giant: scale 0 to 100, 0 no effect, 100 complete control
Summary of the method: as §2

[8] = tested on: large (Lg) crabgrass (Digitaria sanguinalis); experiment: Test D pre-/postemergence plant response; settings: Postemergence; for Crabgrass, Large plant response rating: scale 0 to 100 (0 no effect, 100 complete control); for Plant response rating, Crabgrass, Large: scale 0 to 100, 0 no effect, 100 complete control
Summary of the method: as §2

[9] = tested on: oilseed rape (Brassica napus); experiment: Test D pre-/postemergence plant response; settings: Postemergence
Summary of the method: as §2

[10] = tested on: pigweed (Amaranthus retroflexus); experiment: Test D pre-/postemergence plant response; settings: Postemergence; for Plant response rating, Pigweed: scale 0 to 100, 0 no effect, 100 complete control
Summary of the method: as §2

[11] = tested on: ragweed (common ragweed, Ambrosia elatior); experiment: Test D pre-/postemergence plant response; settings: Postemergence; for Plant response rating, Ragweed: scale 0 to 100, 0 no effect, 100 complete control
Summary of the method: as §2

[12] = tested on: yellow nutsedge (Cyperus esculentus); experiment: Test D pre-/postemergence plant response; settings: Postemergence; for Plant response rating, Nutsedge, Yellow: scale 0 to 100, 0 no effect, 100 complete control
Summary of the method: as §2

[13] = 31 g ai/ha, Preemergence, 0 to 100 scale where 0 is no effect and 100 is complete control
[14] = 125 g ai/ha, postemergence, 0 to 100 scale, 0 no effect, 100 complete control
[15] = Postemergence, 31 g ai/ha, 0 to 100 scale (0 no effect, 100 complete control)
[16] = Preemergence, 125 g ai/ha, 0 to 100 scale (0 no effect, 100 complete control)
[17] = 31 g ai/ha, scale 0 to 100 (0 no effect, 100 complete control)

## FC(F)(Br)c1cc(-c2ccccc2Oc2ncc(Cl)cn2)no1 [Compound 162]
[1]; [13]
  Plant response rating, Ryegrass, Italian: 0
[1]; [14]
  Plant response rating, Ryegrass, Italian: 50
[1]; [15]
  Plant response rating, Ryegrass, Italian: 0
[1]; [16]
  Ryegrass, Italian plant response rating: 40
Kochia (Kochia scoparia); [13]
  Plant response rating, Kochia: 70
Kochia (Kochia scoparia); [14]
  Plant response rating, Kochia: 100
Kochia (Kochia scoparia); [15]
  Plant response rating, Kochia: 90
Kochia (Kochia scoparia); [16]
  Kochia plant response rating: 70
[2]; [13]
  Plant response rating, Ragweed: 0
[2]; [14]
  Plant response rating, Ragweed: 40
[2]; [15]
  Plant response rating, Ragweed: 0
[2]; [16]
  Ragweed plant response rating: 20
[3]; [17]
  Ryegrass, Italian plant response rating: 0
[3]; 62 g ai/ha
  Plant response rating, Ryegrass, Italian: 5
[3]; 125 g ai/ha
  Plant response rating, Ryegrass, Italian: 5
[4]; 16 g ai/ha
  Barnyardgrass plant response rating: 5
[4]; 31 g ai/ha
  Barnyardgrass plant response rating: 10
[4]; 62 g ai/ha
  Plant response rating, Barnyardgrass: 15
[4]; 125 g ai/ha
  Plant response rating, Barnyardgrass: 15
[5]; 16 g ai/ha
  Blackgrass plant response rating: 0
[5]; 31 g ai/ha
  Blackgrass plant response rating: 30
[5]; 62 g ai/ha
  Plant response rating, Blackgrass: 30
[5]; 125 g ai/ha
  Plant response rating, Blackgrass: 45
Corn (Zea mays); 16 g ai/ha
  Corn plant response rating: 5
Corn (Zea mays); 31 g ai/ha
  Corn plant response rating: 5
Corn (Zea mays); 62 g ai/ha
  Plant response rating, Corn: 5
Corn (Zea mays); 125 g ai/ha
  Plant response rating, Corn: 5
[6]; [17]
  Galium plant response rating: 60
[6]; 62 g ai/ha
  Plant response rating, Galium: 60
[6]; 125 g ai/ha
  Plant response rating, Galium: 80
[7]; 16 g ai/ha
  Foxtail, Giant plant response rating: 10
[7]; 31 g ai/ha
  Foxtail, Giant plant response rating: 10
[7]; 62 g ai/ha
  Plant response rating, Foxtail, Giant: 10
[7]; 125 g ai/ha
  Plant response rating, Foxtail, Giant: 20
[8]; 16 g ai/ha
  Crabgrass, Large plant response rating: 5
[8]; 31 g ai/ha
  Crabgrass, Large plant response rating: 5
[8]; 62 g ai/ha
  Plant response rating, Crabgrass, Large: 10
[8]; 125 g ai/ha
  Plant response rating, Crabgrass, Large: 20
[9]; [17]
  Oilseed Rape plant response rating: 5
[9]; 62 g ai/ha, scale 0 to 100, 0 no effect, 100 complete control
  Plant response rating, Oilseed Rape: 40
[10]; [17]
  Pigweed plant response rating: 90
[10]; 62 g ai/ha
  Plant response rating, Pigweed: 100
[10]; 125 g ai/ha
  Plant response rating, Pigweed: 100
[11]; [17]
  Ragweed plant response rating: 30
[11]; 62 g ai/ha
  Plant response rating, Ragweed: 40
[11]; 125 g ai/ha
  Plant response rating, Ragweed: 50
[12]; [17]
  Nutsedge, Yellow plant response rating: 0
[12]; 62 g ai/ha
  Plant response rating, Nutsedge, Yellow: 5
[12]; 125 g ai/ha
  Plant response rating, Nutsedge, Yellow: 10
